Measured values: patent US8426429B2, “2-amino-quinazoline derivatives useful as inhibitors of β-secretase (BACE)” (Jansssen Pharmaceutica N.V., priority 2004, dated 2013)

Target: T1, β-secretase (BACE) (Homo sapiens, UniProt P56817)
T1 construct: purchased Panvera
Assay: BACE FS1 % Inhibition Assay
Type: biochemical
Method: The following reagents were used in this assay: sodium acetate, PEG8000 (Sigma), DMSO, HEPES, FS1 substrate [[…]] […] The FS1-substrate stock solution was prepared in DMSO as a 10 mg/mL solution. The FS1-substrate working solution was prepared by diluting the 10 mg/mL stock solution with substrate assay buffer to a final concentration of 300 μg/mL. The β-secretase (BACE) working solution was prepared by diluting a 0.83 mg/mL BACE stock solution with enzyme assay buffer to a final concentration of 4 μg/mL. Test compounds were dissolved in DMSO to 10 mM. […] The screening procedure for this assay was as follows: 15 μL of BACE working solution was pipetted into each well of a 96-well plate. To each well was then pipetted 2 μL of test compound at the selected concentration. Test compound and BACE were then mixed with a pipettor and incubated for 20 min at room temperature. To each well was then added 10 μL of the FS1 substrate working solution. The plates were then incubated for 1 hour at room temperature. […] The procedure for the blank was as follows. 15 μL of assay buffer was pipetted into each well to be used as a blank control. To each well was then added 2 μL of vehicle and 10 μL of FS1-substrate working solution. The plates were then incubated for 1 hour at room temperature. […] The procedure for the positive control was as follows: 15 μL of BACE working solution was pipetted into each well to be used as a positive control. To each well was then pipetted 2 μL of vehicle. Vehicle and BACE were then mixed with a pipettor and incubated for 20 min at room temperature. To each well was then added 10 μL of the FS1 substrate working solution. The plates were then incubated for 1 hour at room temperature. […] For test compounds, % inhibition was determined at each concentration as follows: [formula]

T1 sequence (P56817 46-501): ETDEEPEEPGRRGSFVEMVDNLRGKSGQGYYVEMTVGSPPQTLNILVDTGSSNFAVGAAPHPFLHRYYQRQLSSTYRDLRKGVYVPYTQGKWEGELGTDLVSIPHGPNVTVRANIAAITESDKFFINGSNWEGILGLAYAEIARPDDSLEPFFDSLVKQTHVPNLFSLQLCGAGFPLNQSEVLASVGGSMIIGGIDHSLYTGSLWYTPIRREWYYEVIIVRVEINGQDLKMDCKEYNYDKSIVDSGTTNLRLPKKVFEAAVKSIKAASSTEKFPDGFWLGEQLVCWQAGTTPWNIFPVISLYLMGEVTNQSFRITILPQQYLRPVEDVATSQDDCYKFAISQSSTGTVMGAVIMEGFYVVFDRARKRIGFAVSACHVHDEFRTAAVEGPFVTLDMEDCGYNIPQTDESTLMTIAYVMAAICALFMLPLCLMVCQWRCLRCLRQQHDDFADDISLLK

| SMILES | % Inhibition (FS) (0.3 μM test compound) [%] | % Inhibition (FS) (1 μM test compound) [%] | % Inhibition (FS) (3 μM test compound) [%] | other results |
| --- | --- | --- | --- | --- |
| NC1=Nc2ccc(Oc3ccccc3)cc2CN1C1CCN(C(=O)C23CC4CC(CC(C4)C2)C3)CC1 [Compound 524] | <30 | <30 | 44 |  |
| CCCC=Cc1ccc2c(c1)CN(CCNC(=O)c1cccc(C#N)c1)C(N)=N2 [Compound 568] | <30 | <30 | <30 |  |
| CN(C(=O)c1cccc(CN2Cc3cc(Oc4ccccc4-c4nc5ccccc5s4)ccc3N=C2N)c1)C1CCCCC1 [Compound 470] | <30 | <30 | 31 |  |
| CN(C(=O)CCC(C1CCCCC1)N1Cc2cc(Oc3ccccc3)ccc2N=C1N)C1CCC(O)CC1 (stereo not drawn) [Compound 639] | <30 | <30 | 48 |  |
| CCCC(CNC(=O)C12CC3CC(CC(C3)C1)C2)N1Cc2cc(Oc3ccccc3)ccc2N=C1N (stereo not drawn) [Compound 555] |  |  |  | % Inhibition (FS) (0.3 μM test compound, 0.3 µM): <30%; % Inhibition (FS) (1 μM test compound, 1 µM): <30%; % Inhibition (FS) (3 μM test compound, 3 µM): 46% |
| CN(C(=O)c1cccc(CN2Cc3cc(Nc4ccc(C5CCCCC5)cc4)ccc3N=C2N)c1)C1CCCCC1 [Compound 437] | <30 | <30 | 38 |  |
| C[C@@H](CNC(=O)C1CCCCC1)N1Cc2cc(Oc3ccccc3)ccc2N=C1N [Compound 486] | <30 | <30 | <30 |  |
| NC1=Nc2ccc(Oc3ccccc3)cc2CN1Cc1ocnc1C(=O)NC1CCCCC1 [Compound 640] | <30 | <30 | <30 |  |
| CC(C)c1ccccc1Oc1ccc2c(c1)CN(C(CC(=O)NC1CCCCC1)C1CCCCC1)C(N)=N2 (stereo not drawn) [Compound 313] | <30 | <30 | 31 |  |
| CC(C)(C)OC(=O)Nc1cccc(CN2Cc3cc(Oc4ccccc4)ccc3N=C2N)c1 [Compound 224] | <30 | <30 | <30 |  |
| CC(CC(=O)NCCN1Cc2cc(-c3ccccc3F)ccc2N=C1N)C(F)(F)F (stereo not drawn) [Compound 681] |  |  |  | % Inhibition (FS) (0.3 μM compound, FS1 substrate): 67%; % Inhibition (FS) (1 μM compound, FS1 substrate): 100% |
| NC1=Nc2ccc(Oc3ccccc3)cc2CN1CCNC(=O)C1CC1c1ccccc1 (stereo not drawn) [Compound 139] |  |  | <30 | % Inhibition (FS) (10 μM test compound): 61% |
| NC1=Nc2ccc(Oc3c(F)cccc3F)cc2CN1CCC(=O)NC1C2CC3CC(C2)CC1C3 (stereo not drawn) [Compound 529] | <30 | <30 | 66 |  |
| CN(C(=O)c1ccc(CN2Cc3cc(Oc4ccccc4)ccc3N=C2N)s1)C1CCCCC1 [Compound 503] | <30 | <30 | 90 |  |
| NC1=Nc2ccc(-c3ccccc3F)cc2CN1CCNC(=O)C12CC3CC(CC(C3)C1)C2 [Compound 644] | 46 | 72 | 104 |  |
| NC1=Nc2ccc(Oc3ccccc3)cc2CN1C(CNC(=O)CC1CCCC1)C1CCCCC1 (stereo not drawn) [Compound 311] | 74 | 108 | 118 |  |
| CN(C(=O)CCC(CO)N1Cc2cc(Oc3ccccc3)ccc2N=C1N)C1CCCCC1 (stereo not drawn) [Compound 557] | <30 | <30 | <30 |  |
| CN(C(=O)c1cccc(CN2Cc3cc(-c4ccccc4-c4ccccc4)ccc3N=C2N)c1)C1CCCCC1 [Compound 321] | −33 | <30 | <30 |  |
| CC(C)(C)OC(=O)NCc1cccc(CN2Cc3cc(Oc4ccccc4)ccc3N=C2N)c1 [Compound 315] | <30 | <30 | 33 |  |
| CC(=O)Nc1ccccc1-c1ccc2c(c1)CN(CCNC(=O)C1CCCCC1)C(N)=N2 [Compound 541] | <30 | <30 | <30 |  |
| NC1=Nc2ccc(Oc3ccccc3)cc2CN1CCCNC(=O)C1CC1 [Compound 143] |  |  | <30 | % Inhibition (FS) (10 μM test compound): 32% |
| Cc1cc(C)cc(Sc2ccc3c(c2)CN(Cc2cccc(C(=O)N(C)C4CCCCC4)c2)C(N)=N3)c1 [Compound 409] | <30 | <30 | 72 |  |

| SMILES | % Inhibition (FS) (0.3 μM test compound) [%] | % Inhibition (FS) (1 μM test compound) [%] | % Inhibition (FS) (3 μM test compound) [%] | other results |
| --- | --- | --- | --- | --- |
| CCCC=Cc1ccc2c(c1)CN(CCNC(=O)C(C)(C)C)C(N)=N2 [Compound 574] | <30 | <30 | <30 |  |
| CN(C(=O)c1cccc(CN2Cc3cc(Sc4ccc5ccccc5c4)ccc3N=C2N)c1)C1CCCCC1 [Compound 415] | <30 | <30 | 63 |  |
| COc1ccc(Sc2ccc3c(c2)CN(Cc2cccc(C(=O)N(C)C4CCCCC4)c2)C(N)=N3)cc1 [Compound 410] | <30 | 39 | 50 |  |
| CCCC=Cc1ccc2c(c1)CN(CCNC(=O)Cc1ccccc1)C(N)=N2 [Compound 596] | <30 | <30 | <30 |  |
| NC1=Nc2ccc(Oc3ccccc3)cc2CN1CCNC(=O)c1ccc(-c2ccccc2)cc1 [Compound 195] | <30 | <30 | <30 |  |
| CC(C)[C@@H](CNC(=O)C1CCCCC1)N1Cc2cc(Oc3ccccc3)ccc2N=C1N [Compound 528] | <30 | <30 | 41 |  |
| NC1=Nc2ccc(Oc3ccccc3)cc2CN1CCC(=O)N(C1CCCCC1)C1CCCCC1 [Compound 180] | <30 | <30 | 77 |  |
| CN(C(=O)c1cccc(CN2Cc3cc(Oc4ccccc4-n4cccc4)ccc3N=C2N)c1)C1CCCCC1 [Compound 471] | <30 | <30 | 38 |  |
| NC1=Nc2ccc(Oc3ccccc3)cc2CN1C1CCN(C(=O)C2CCCCC2)C1 (stereo not drawn) [Compound 119] |  |  | 42 | % Inhibition (FS) (10 μM test compound): 75% |
| CC(=O)Nc1ccc(Sc2ccc3c(c2)CN(Cc2cccc(C(=O)N(C)C4CCCCC4)c2)C(N)=N3)cc1 [Compound 417] | <30 | <30 | 78 |  |
| CSc1ccc(Nc2ccc3c(c2)CN(Cc2cccc(C(=O)N(C)C4CCCCC4)c2)C(N)=N3)cc1 [Compound 442] | <30 | 58 | 101 |  |
| CCCC(CCCC(=O)NC1CCCCC1)N1Cc2cc(Oc3ccccc3)ccc2N=C1N (stereo not drawn) [Compound 91] |  |  | 68 | % Inhibition (FS) (10 μM test compound): 117% |
| NC1=Nc2ccc(-c3ccncc3)cc2CN1CCNC(=O)C1CCCCC1 [Compound 576] | <30 | <30 | <30 |  |
| CCOC(=O)C1CCC(N(C)C(=O)CCC(C2CCCCC2)N2Cc3cc(Oc4ccccc4)ccc3N=C2N)CC1 (stereo not drawn) [Compound 763] |  |  |  | % Inhibition (FS) (0.3 μM compound, FS1 substrate, 0.3 µM): <30%; % Inhibition (FS) (1 μM compound, FS1 substrate, 1 µM): 84% |
| Cc1ccccc1-c1ccc2c(c1)CN(CCNC(=O)C13CC4CC(CC(C4)C1)C3)C(N)=N2 [Compound 658] | <30 | 62 | 100 |  |
| Cc1ccccc1-c1ccc2c(c1)CN(CCNC(=O)CCC(F)(F)F)C(N)=N2 [Compound 678] |  |  |  | % Inhibition (FS) (0.3 μM compound, FS1 substrate): 51%; % Inhibition (FS) (1 μM compound, FS1 substrate): 88%; % Inhibition (FS) (3 μM compound, FS1 substrate): 99% |
| CC(C)C(CC(=O)NC1CCCCC1)N1Cc2cc(Oc3ccccc3)ccc2N=C1N (stereo not drawn) [Compound 401] | <30 | <30 | 52 |  |
| COC1CCCC(C(=O)NCCN2Cc3cc(C4=CCCC4)ccc3N=C2N)C1 (stereo not drawn) [Compound 706] |  |  |  | % Inhibition (FS) (0.3 μM compound, FS1 substrate): <30%; % Inhibition (FS) (1 μM compound, FS1 substrate): <30%; % Inhibition (FS) (3 μM compound, FS1 substrate): <30% |
| CN1CCC(N(C)C(=O)c2cccc(CN3Cc4cc(Oc5ccccc5)ccc4N=C3N)c2)CC1 [Compound 223] | <30 | <30 | <30 |  |
| CN(C(=O)CCC(C1CCCCC1)N1Cc2cc(Oc3ccccc3)ccc2N=C1N)C1CCOCC1 (stereo not drawn) [Compound 633] | <30 | 30 | 70 |  |
| CC(C)CCC(=O)N1CCCC(N2Cc3cc(Oc4ccccc4)ccc3N=C2N)C1 (stereo not drawn) [Compound 613] | 36 | 31 | <30 |  |
| NC1=Nc2ccc(-c3ccc(F)cc3)cc2CN1CCNC(=O)C1CCCCC1 [Compound 623] | <30 |  |  | % Inhibition (FS) (1 μM test compound, 1 µM): <30%; % Inhibition (FS) (3 μM test compound, 3 µM): 82% |
